Test results as given in patent publication US12617785B2, “Pyrrolo[2,3-b]pyridine-3-carboxamide compositions and methods for ameliorating hearing loss” (priority 2020, dated 2026).
pIC50: −log10 of the molar value.

How the values were obtained:
Yap = Yap phosphorylation by western blot in cultured utricles; format: cell-based; settings: utricles from adult mice
Description: (§1) The compound T01 was tested extensively to explore its mechanism of action and its utility in regenerating hair cells of the ear. The effects of the compounds were tested on utricles isolated from mice eight to twelve weeks of age. Internal ears were dissected from mice euthanized with fluothane and placed into ice-cold Hank's balanced salt solution, and cultured as previously described by Gnedeva, K. & Hudspeth [Proc. Natl. Acad. Sci. 112, 14066-14071 (2015)].
(§2) ; T01-treated=250 EdU+ supporting cells; […]

[1] = system: adult utricular supporting cells; test: EdU proliferation assay in cultured adult utricles; format: cell-based, mice; settings: after 5 days of treatment; control=20; p=0.021
Description: as §1
For proliferation assays, utricles were cultured with 10 μM 5-ethynyl-2′-deoxyuridine (EdU) that was detected with click chemistry.
as §2

Lats1 [2] = molecular target: T1, Lats1 (Homo sapiens, UniProt O95835); test: In vitro kinase assay (HTRF KinEASE-STK S1) Lats1, 10 uM ATP; format: biochemical
T1 construct: purchased Carna 01-123
T1 sequence (O95835 1-1130): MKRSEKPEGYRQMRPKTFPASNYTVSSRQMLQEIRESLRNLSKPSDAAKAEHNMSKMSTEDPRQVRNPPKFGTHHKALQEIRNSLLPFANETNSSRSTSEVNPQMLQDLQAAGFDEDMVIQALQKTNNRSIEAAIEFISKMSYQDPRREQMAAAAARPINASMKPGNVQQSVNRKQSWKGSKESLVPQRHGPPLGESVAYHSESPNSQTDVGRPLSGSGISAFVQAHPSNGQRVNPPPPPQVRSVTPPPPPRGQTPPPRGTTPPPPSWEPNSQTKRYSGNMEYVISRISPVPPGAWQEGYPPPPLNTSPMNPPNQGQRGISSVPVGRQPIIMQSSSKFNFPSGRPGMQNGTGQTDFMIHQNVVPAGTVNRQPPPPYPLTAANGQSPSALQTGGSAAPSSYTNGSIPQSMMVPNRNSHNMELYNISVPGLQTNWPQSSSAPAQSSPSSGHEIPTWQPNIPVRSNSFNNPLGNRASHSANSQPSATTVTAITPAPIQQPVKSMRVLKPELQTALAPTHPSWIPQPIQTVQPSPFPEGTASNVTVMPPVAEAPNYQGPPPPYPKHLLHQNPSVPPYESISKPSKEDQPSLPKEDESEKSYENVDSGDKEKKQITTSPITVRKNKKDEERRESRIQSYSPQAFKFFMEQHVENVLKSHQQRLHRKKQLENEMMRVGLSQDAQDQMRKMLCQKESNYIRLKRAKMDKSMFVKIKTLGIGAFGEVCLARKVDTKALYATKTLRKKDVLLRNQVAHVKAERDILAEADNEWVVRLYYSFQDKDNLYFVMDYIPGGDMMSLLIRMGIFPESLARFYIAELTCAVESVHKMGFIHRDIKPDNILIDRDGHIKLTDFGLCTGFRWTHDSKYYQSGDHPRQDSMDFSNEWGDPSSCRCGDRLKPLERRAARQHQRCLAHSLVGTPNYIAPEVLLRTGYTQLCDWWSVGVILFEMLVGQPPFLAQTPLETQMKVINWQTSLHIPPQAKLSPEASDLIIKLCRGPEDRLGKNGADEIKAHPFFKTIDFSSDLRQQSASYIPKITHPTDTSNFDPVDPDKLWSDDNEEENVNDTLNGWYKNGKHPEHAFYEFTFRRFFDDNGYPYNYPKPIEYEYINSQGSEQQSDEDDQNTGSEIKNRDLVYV
Description: IVKA assay at 10 uM method:
(§3) Reactions were conducted with 10 μM STK1 substrate and 10 μM ATP or 2 mM ATP as shown below. […] The enzyme, substrate, ATP, and test compound of the invention were combined in a low-volume 384-well plate and shaken for 50 min at room temperature, unless otherwise indicated. The reaction was stopped by adding the detection reagents, which were prepared at an 8:1 biotin:streptavidin ratio and shaking for 60 min at room temperature. All reactions were conducted in triplicate and a Synergy NEO (Biotek) was used to detect the signal.

Lats1 [3] = molecular target: T1, Lats1; test: In vitro kinase assay (HTRF KinEASE-STK S1) Lats1, 2 mM ATP; format: biochemical
Description: as §3
Assay was carried out in a 384 well plate. Each drug dosage curve was done with 16 points of 3-fold dilutions in 100% DMSO, and triplicate.

[4] = 10 uM ATP, read-out: LATS1_HTRF_10 uM ATP IC50
[5] = 2 mM ATP, read-out: LATS1_HTRF_2 mM ATP IC50

SMILES | pIC50 (Lats1 [2]; [4]) | pIC50 (Lats1 [3]; [5]) | other results
O=C(/N=c1\sccn1Cc1ccccc1)c1c[nH]c2ncccc12 [T01, (Z)—N-(3-benzylthiazol-2(3H)-ylidene)-1H-pyrrolo[2,3-b]pyridine-3-carboxamide] | – | – | level of Yap phosphorylation as detected by western blot (Yap): striking reduction; EdU+ supporting cells [1]: 250
O=C(/N=c1\occn1Cc1ccccc1)c1c[nH]c2ncccc12 [T25] | 8.72 | 7.23 | –
NCc1ccccc1Cn1ccs/c1=N\C(=O)c1c[nH]c2ncccc12 [T43, (Z)—N-(3-(2-(aminomethyl)benzyl)thiazol-2(3H)-ylidene)-1H-pyrrolo[2,3-b]pyridine-3-carboxamide] | 8.66 | 6.85 | –
O=C(/N=c1\sccn1-c1ccccc1)c1c[nH]c2ncccc12 [T14] | 9.52 | 8.52 | –
NCc1cccc(Cn2ccs/c2=N\C(=O)c2c[nH]c3ncccc23)c1 [T45, (Z)—N-(3-(3-(aminomethyl)benzyl)thiazol-2(3H)-ylidene)-1H-pyrrolo[2,3-b]pyridine-3-carboxamide] | 7.51 | 6.51 | –
CC(N)CCn1ccs/c1=N\C(=O)c1c[nH]c2ncccc12 (centres unmarked) [T41, (Z)—N-(3-(3-aminobutyl)thiazol-2(3H)-ylidene)-1H-pyrrolo[2,3-b]pyridine-3-carboxamide] | 8.36 | 6.52 | –
NCc1ccc(Cn2ccs/c2=N\C(=O)c2c[nH]c3ncccc23)cc1 [T47, (Z)—N-(3-(4-(aminomethyl)benzyl)thiazol-2(3H)-ylidene)-1H-pyrrolo[2,3-b]pyridine-3-carboxamide] | 7.08 | – | –
CC(c1ccccc1)n1ccs/c1=N\C(=O)c1c[nH]c2ncccc12 (centres unmarked) [T39, (Z)—N-(3-(1-Phenylethyl)thiazol-2(3H)-ylidene)-1H-pyrrolo[2,3-b]pyridine-3-carboxamide] | – | – | pIC50 (Lats1 [2]): 8.72; pIC50 (Lats1 [3]): 7.23
N#Cc1ccc(Cn2ccs/c2=N\C(=O)c2c[nH]c3ncccc23)cc1 [T46, (Z)—N-(3-(4-cyanobenzyl)thiazol-2(3H)-ylidene)-1H-pyrrolo[2,3-b]pyridine-3-carboxamide] | 6.41 | – | –
O=C(/N=c1\sccn1Cc1ccccc1)c1c[nH]c2ncc(Cl)cc12 [T06] | 7.04 | – | –
O=C(/N=c1\sccn1CCc1ccccc1)c1c[nH]c2ncccc12 [T40] | 7.05 | – | –
Cc1cs/c(=N\C(=O)c2c[nH]c3ncccc23)n1Cc1ccccc1 [T49] | – | – | pIC50 (Lats1 [2]): 8.57; pIC50 (Lats1 [3]): 9.30
